In PMC11050599, “Novel Tetracyclic Azaphenothiazines with the Quinoline Ring as New Anticancer and Antibacterial Derivatives of Chlorpromazine” (International Journal of Molecular Sciences, 2024):
In brackets after ≈: the same amount, converted by molar mass. Where two headings read alike, the source gives them in different places.

How the values were obtained:
[1] = test system: cancer cell lines; test: MTT assay, summary over several cell lines; format: cell-based, human; settings: Homo sapiens
Procedure: (§1) The human cell lines, such as A549 (lung cancer), MDA-MB-231 (breast cancer), MiaPaca-2 (pancreatic cancer), PC3 (metastatic prostate cancer), HCT-116 (colon carcinoma), and HaCaT (immortalized keratinocytes), were sourced from the American Type Culture Collection (ATCC) in Rockville, USA. Culturing conditions varied as follows: HCT116 cells were cultured in MEM (ThermoSci, Waltham, MA, USA), A549, MDA-MB-231, MiaPaca, HaCaT cells in DMEM High Glucose and PC3 cells were cultured in RPMI (Biowest SAS, Nuaillé, France). The growth medium consisted of 10% fetal bovine serum (FBS, Sigma-Aldrich, St. Louis, MO, USA), 20 mM HEPES (Biowest, Nuaillé, France), and antibiotics (100 U/mL of penicillin and 100 μg/mL of streptomycin) from Gibco, Grand Island, NY, USA. […] These compounds were added to 96-well plates containing study cells (1 × 10^4 cells per well) and incubated for 72 h. […] Cell absorbance results were incorporated into the formula for calculating the relative MTT level (%), enabling the assessment of cell viability following exposure to the test compounds. The cell viability percentage represents the MTT reduction in cells treated with the test compounds compared to the control sample, where only the medium was added to the cells.

[2] = test system: S. epidermidis ATCC 12228; test: MIC broth microdilution; format: cell-based; settings: Staphylococcus epidermidis, read-out: MIC S. epidermidis ATCC 12228
Summary of the method: (§2)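 Two-fold serial broth microdilution in Mueller-Hinton II broth, final inoculum adjusted to […]. Compounds dissolved in DMSO, final solvent at most 1%.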

[3] = test system: S. aureus ATCC 29213; test: MIC broth microdilution; format: cell-based; settings: Staphylococcus aureus, read-out: MIC S. aureus ATCC 29213
Summary of the method: as §2

[4] = test system: S. aureus ATCC 6538; test: MIC broth microdilution; format: cell-based; settings: Staphylococcus aureus, read-out: MIC S. aureus ATCC 6538
Summary of the method: as §2

[5] = test system: E. coli ATCC 25922; test: MIC broth microdilution; format: cell-based; settings: for MIC: Escherichia coli, read-out: MIC E. coli ATCC 25922
Summary of the method: as §2

[6] = test system: P. aeruginosa ATCC 15442; test: MIC broth microdilution; format: cell-based; settings: Pseudomonas aeruginosa, read-out: MIC P. aeruginosa ATCC 15442
Summary of the method: as §2

[7] = test system: S. epidermidis ATCC 35984; test: MIC broth microdilution; format: cell-based; settings: Staphylococcus epidermidis, read-out: MIC S. epidermidis ATCC 35984
Summary of the method: as §2

[8] = test system: S. aureus ATCC 25923; test: MIC broth microdilution; format: cell-based; settings: Staphylococcus aureus, read-out: MIC S. aureus ATCC 25923
Summary of the method: as §2

[9] = test system: S. aureus NCTC 4163; test: MIC broth microdilution; format: cell-based; settings: Staphylococcus aureus, read-out: MIC S. aureus NCTC 4163
Summary of the method: as §2

[10] = test system: MiaPaCa-2 (pancreas cancer); test: MTT assay, MiaPaCa-2 cells; format: cell-based, human; settings: for IC50: Homo sapiens, read-out: IC50 MiaPaCa-2; for SI MiaPaCa-2: SI = IC50 for normal cell line (HaCaT)/IC50 cancer cell line
Procedure: as §1

[11] = test system: HCT116 (colon cancer); test: MTT assay, HCT116 cells; format: cell-based, human; settings: for IC50: Homo sapiens, read-out: IC50 HCT116; for SI HCT116: SI = IC50 for normal cell line (HaCaT)/IC50 cancer cell line
Procedure: as §1

[12] = test system: PC3 (prostate cancer); test: MTT assay, PC3 cells; format: cell-based, human; settings: for IC50: Homo sapiens, read-out: IC50 PC3; for SI PC3: SI = IC50 for normal cell line (HaCaT)/IC50 cancer cell line
Procedure: as §1

[13] = test system: MiaPaCa-2 cells; test: Annexin V-FITC/PI apoptosis flow cytometry, MiaPaCa-2; format: cell-based, human; settings: for MiaPaca: Alive / MiaPaca: Early Apoptotic / MiaPaca: Necrotic / MiaPaca: Necrotic/Late Apoptotic: representative dot plot, Figure 4B, IC50, 72 h
Procedure: (§3) To analyze the number of cells in early apoptosis, late apoptosis, or necrosis, A549, MiaPaca-2, and HCT-116 cell lines were cultured in 6-well plates with a seeding density of 1 × 10^5 cells per well. These cells were then treated with selected compounds (4, 5, and 8) at their respective IC50 concentrations and incubated for 72 h. Subsequently, a commercially available kit, the FITC: Annexin V Apoptosis Detection Kit I from BD Biosciences Pharmingen in San Jose, CA, USA, was utilized to assess apoptosis. After 72 h the cells were harvested, washed, and labeled with Annexin V-FITC and propidium iodide (PI) following the manufacturer’s protocol (Becton Dickinson), as previously described. The stained cells were analyzed by flow cytometry. The cells were identified as early apoptotic (Annexin V+/PI−) or late apoptotic/necrotic (Annexin V+/PI+).

[14] = test system: MDA-MB-231 (breast cancer); test: MTT assay, MDA-MB-231 cells; format: cell-based, human; settings: for IC50: Homo sapiens, read-out: IC50 MDA; for SI MDA: SI = IC50 for normal cell line (HaCaT)/IC50 cancer cell line
Summary of the method: (§4)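 Cells seeded at 1 × 10^4 per well were exposed to compounds for 72 h; media: MEM for HCT116, DMEM High Glucose for MDA-MB-231 and HaCaT, RPMI for PC3, each with 10% FBS and 20 mM HEPES. Viability given as MTT reduction relative to medium-only control.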

[15] = test system: HaCaT (immortalized human keratinocytes); test: MTT assay, HaCaT normal cells; format: cell-based; settings: Homo sapiens, HaCaT, 72 h, read-out: IC50 HaCaT (Table 3)
Summary of the method: as §4

[16] = test system: A549 (lung cancer); test: MTT assay, A549 cells; format: cell-based, human; settings: for IC50: Homo sapiens, read-out: IC50 A549
Summary of the method: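 After a 72 h incubation of 1 × 10^4 cells per well with compound, absorbance from MTT reduction was converted to percent of the medium-only control.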

[17] = test system: HCT116 cells; test: Cell cycle analysis by flow cytometry, HCT116; format: cell-based, human; settings: IC50, 24 h, compared to the control
Procedure: (§5) In brief, cells were seeded at a density of 1 × 10^5 cells/well on a six-well plate and allowed to adhere for 24 h. […] Both population cells (the attached and detached) were collected and centrifuged at 400× g for 5 min at 4 °C. After centrifugation, the cells were washed twice with 0.9% NaCl and subsequently fixed in 500 μL of 70 % cold ethanol overnight.
(§6) Before analysis, the fixed cells underwent another centrifugation step at 850× g for 5 min at 4 °C and were washed with PBS. Following the washes, the cells were incubated with 50 μL of RNase (100 μg/mL) and 200 μL of propidium iodide (PI) (50 μg/mL) at 37 °C for 30 min in the dark. Finally, 100 μL of PBS was added to each sample. Flow cytometry (Becton Dickinson FACS Verse, Franklin Lakes, NJ, USA) was then used to analyze the cell cycle distribution, identifying cells in various stages including sub-G1, G0/G1, S, and G2/M phases. Each assay was performed in quadruplicate.

[18] = test system: HCT116 cells; test: Annexin V-FITC/PI apoptosis flow cytometry, HCT116; format: cell-based, human; settings: representative dot plot, Figure 4C, IC50, 72 h
Procedure: as §3

[19] = test system: A549 cells; test: Cell cycle analysis by flow cytometry, A549; format: cell-based, human; settings: compound at IC50, 24 h
Procedure: as §5, §6

[20] = test system: A549 cells; test: Annexin V-FITC/PI apoptosis flow cytometry, A549; format: cell-based, human; settings: representative dot plot, Figure 4A, IC50, 72 h
Procedure: as §3

## Clc1ccc2c(c1)Nc1nc3ccccc3cc1S2 [Compound 5, 6H-8-chloroquino[3,2-b]benzo[1,4]thiazine]
[1]; range over two cell lines not given, read-out: IC50 range against two tested cell lines
  IC50: 11.1 to 14.9 µM
[2]; ATCC12228, 19 h, 35 °C
  MIC: 8 µg/mL (≈ 28.1 µM)
[3]; ATCC29213, 19 h, 35 °C
  MIC: 8 µg/mL (≈ 28.1 µM)
[4]; ATCC6538, 19 h, 35 °C
  MIC: 8 µg/mL (≈ 28.1 µM)
[5]; ATCC25922, 19 h, 35 °C
  MIC: 256 µg/mL (≈ 899 µM)
[6]; ATCC15442, 19 h, 35 °C
  MIC: 256 µg/mL (≈ 899 µM)
[7]; ATCC35984, 19 h, 35 °C
  MIC: 8 µg/mL (≈ 28.1 µM)
[8]; ATCC25923, 19 h, 35 °C
  MIC: 8 µg/mL (≈ 28.1 µM)
[9]; NCTC4163, 19 h, 35 °C
  MIC: 8 µg/mL (≈ 28.1 µM)
[10]; MIA PaCa-2, MTT, 72 h
  IC50: 11.1 ± 0.4 µM
[10]
  SI MiaPaCa-2: 5.0
[11]; HCT-116, MTT, 72 h
  IC50: 33.5 ± 6.8 µM
[11]
  SI HCT116: 1.7
[12]; PC-3, MTT, 72 h
  IC50: 76.5 ± 8.1 µM
[12]
  SI PC3: 0.7
[13]; compound at IC50, 72 h
  cells in early apoptosis, MiaPaCa-2: 4.56%
  cells in late apoptosis/necrosis, MiaPaCa-2: 23%
[13]
  MiaPaca: Alive: 72.68%
  MiaPaca: Early Apoptotic: 4.56%
  MiaPaca: Necrotic: 9.46%
  MiaPaca: Necrotic/Late Apoptotic: 13.29%
[14]; MDA-MB-231, MTT, 72 h, MDA-MB231
  IC50: 76.5 ± 0.8 µM
[14]
  SI MDA: 0.7
[15]; MTT, normal cells
  IC50: 56.5 ± 4.5 µM
[16]; A549, MTT, 72 h, mean SD
  IC50: 14.9 ± 2.7 µM
[16]; SI = IC50 for normal cell line (HaCaT)/IC50 cancer cell line
  SI A549: 3.8

## O=C(NCCCl)NCCCCN1c2cc(Cl)ccc2Sc2cc3ccccc3nc21 [Compound 21, 1-(4-(8-Chloroquino[3,2-b]benzo[1,4]thiazin-6-yl)butyl)-3-(2-chloroethyl)urea]
[1]; read-out: IC50 range toward four cancerous cell lines
  IC50: 6.4 to 11.3 µM
[2]; ATCC12228, 19 h
  MIC: 2 µg/mL (≈ 4.33 µM)
[3]; ATCC29213, 19 h
  MIC: 2 µg/mL (≈ 4.33 µM)
[4]; ATCC6538, 19 h
  MIC: 2 µg/mL (≈ 4.33 µM)
[5]; 19 h, 35 °C
  MIC E. coli ATCC 25922: 8 µg/mL (≈ 17.3 µM)
[5]; ATCC25922, 19 h
  MIC: 8 µg/mL (≈ 17.3 µM)
[6]; ATCC15442, 19 h
  MIC: > 256 µg/mL
[7]; ATCC35984, 19 h
  MIC: 2 µg/mL (≈ 4.33 µM)
[8]; ATCC25923, 19 h
  MIC: 2 µg/mL (≈ 4.33 µM)
[9]; NCTC4163, 19 h
  MIC: 2 µg/mL (≈ 4.33 µM)
[10]; MIA PaCa-2, 72 h
  IC50: 6.4 ± 2.4 µM
[10]
  SI MiaPaCa-2: 0.2
[11]; HCT-116, 72 h
  IC50: 11.3 ± 2.2 µM
[11]
  SI HCT116: 0.1
[17]
  increase in the cell amount at the sub-G1 phase, HCT116: 12 fold
  increase in the number of cells in the G2/M phase, HCT116: approximately 1.3 fold
  increase in the number of cells in the S phase, HCT116: approximately 2 fold
[18]
  HCT-116: Alive: 17.91%
  HCT-116: Early Apoptotic: 1.71%
  HCT-116: Necrotic: 5.16%
  HCT-116: Necrotic/Late Apoptotic: 75.22%
[19]
  percentage of Sub G1 phase A549 cells: 27.6%
[12]; PC-3, 72 h
  IC50: 76.6 ± 9.8 µM
[12]
  SI PC3: 0.1
[13]
  MiaPaca: Alive: 8.66%
  MiaPaca: Early Apoptotic: 2.45%
  MiaPaca: Necrotic: 37.47%
  MiaPaca: Necrotic/Late Apoptotic: 51.42%
[14]; MDA-MB-231, 72 h
  IC50: 7.4 ± 1.2 µM
[14]
  SI MDA: 0.15
[20]
  A549: Alive: 3.27%
  A549: Early Apoptotic: 1.31%
  A549: Necrotic: 15.90%
  A549: Necrotic/Late Apoptotic: 79.52%
[15]
  IC50: 1.1 ± 0.3 µM
[16]; A549, 72 h
  IC50: 6.98 ± 1.2 µM
